The source of these data is patent publication US6615842B1, “Methods for removing nucleophilic toxins from tobacco smoke” (Cerami Consulting Corp., priority 1998, dated 2003).

The assay can be described thus: Removal of tar from tobacco smoke measured colorimetrically. Particulars: 250 mg portions of compound as filter; smoke from one cigarette drawn through 3 ml water; read at 405 nm; compared with control cigarette.

Method: The smoke from one cigarette was drawn through the filter material and then through 3 mls of distilled water using a water-pipe smoking device which was constructed from a 25 ml glass Erlenmeyer flask attached to a vacuum source with an air flow rate of approximately 35 ml/min. Three 100 microliter aliquots were removed from each flask, placed into ELISA plate wells and read in an ELISA plate reader at 405 nm. The percentage or tar removed is based on a comparison between the cigarette comprising the filter containing the test agent and an appropriate control cigarette.
The smoke from 1 of each type of filter cigarette was then drawn through 3 mls of distilled water using a water-pipe smoking device which was constructed from a small (25 ml) glass Erlenmeyer flask attached to a vacuum source with an air flow rate of approximately 35 ml/min. Three 100 microliter aliquots were removed from each flask, placed into ELISA plated wells and read in an ELISA plate reader at 405 nm.

In the case of `CC(C)(C)OC(=O)N[C@@H](CCC(=O)ON1C(=O)CCC1=O)C(=O)OCc1ccccc1` [N-α-t-BOC-L-glutamic-α-benzyl ester-γ-N-hydroxysuccinimide ester], the “% TAR REMOVAL” value amounted to 96.7%.
To `C[C@H](NC(=O)OC(C)(C)C)C(=O)ON1C(=O)CCC1=O` [N-α-t-BOC-L-alanine-N-hydroxysuccinimide ester] belongs 25%; to `CC(=O)O[C@H]1C(=O)OC(=O)[C@@H]1OC(C)=O` [(+)-Diacetyl-1-tartaric anhydride], 32.1%; to `CC(C)(C)OC(=O)NCCCCCC(=O)ON1C(=O)CCC1=O` [BOC-ε-aminocaproic acid-N-hydroxysuccinimide ester], 74%.
The figure for `O=CC(=O)c1ccccc1` [Phenylglyoxal] is 53%; for `O=C1c2ccccc2C(=O)C1(O)O` [Ninhydrin] it is 83%.
To `CC1(C)CC(=O)CC(=O)C1` [(5,5-dimethyl-1,3-cyclohexanedione, 5,5-dimethyl-1,3-cyclohexanedione] belongs 26%; to `O=C1OC(=O)C2C3C=CC(C12)C1C(=O)OC(=O)C31` (stereo not drawn) [Bicyclo(2,2,2)oct-7-ene-2,3,5,6-tetracarboxylic dianhydride], 98.2%; to `O=C1c2ccccc2C(=O)C1(O)C1(O)C(=O)c2ccccc2C1=O` [Hydrindantin], 95%.
For the compound `O=Cc1ccccc1C=O` [O-phthaldialdehyde], the “% TAR REMOVAL” value is 84%.
To `CCCCCCCCCC=CCC1CC(=O)OC1=O` (stereo not drawn) [2-Dodecen-1-ylsuccinic anhydride] belongs 98.2%; to `O=C1CN(CCN2CC(=O)OC(=O)C2)CC(=O)O1` [Ethylenediaminetetraacetic dianhydride], 98.2%.
